Assay results reported in PubChem BioAssay AID1963871 (Molecular Pharmacology Branch, DTP, NCI, 2024).

System: KRAS-mutant PDC multicell tumor spheroid viability
Assay: Anticancer human tumor 521955-158-R2-J5-PDC patient-derived pancreatic carcinoma cell line growth inhibition [KRAS2]
Details: for viability, T/C: stronger effect = lower value
How it was run: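 Combination screen of spheroid viability in tumor-cell co-cultures with endothelial (HUVEC) and mesenchymal stem cell stroma. Each agent was tested in half-log dilutions, topping at clinical Cmax or at 10 microM without a known Cmax.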

[1] = curve of first compound, second compound 0.1 µM
[2] = curve of first compound, second compound 0.316 µM
[3] = curve of first compound, second compound 1 µM
[4] = curve of first compound, second compound 3.16 µM
[5] = curve of first compound, second compound 10 µM
[6] = second compound 0.1 µM, first compound 0.000316 µM
[7] = second compound 0.1 µM, first compound 0.001 µM
[8] = second compound 0.1 µM, first compound 0.00316 µM
[9] = second compound 0.1 µM, first compound 0.01 µM
[10] = second compound 0.1 µM, first compound 0.0316 µM
[11] = second compound 0.1 µM, first compound 0.1 µM
[12] = second compound 0.316 µM, first compound 0.000316 µM
[13] = second compound 0.316 µM, first compound 0.001 µM
[14] = second compound 0.316 µM, first compound 0.00316 µM
[15] = second compound 0.316 µM, first compound 0.01 µM
[16] = second compound 0.316 µM, first compound 0.0316 µM
[17] = second compound 0.316 µM, first compound 0.1 µM
[18] = second compound 1 µM, first compound 0.000316 µM
[19] = second compound 1 µM, first compound 0.001 µM
[20] = second compound 1 µM, first compound 0.00316 µM
[21] = second compound 1 µM, first compound 0.01 µM
[22] = second compound 1 µM, first compound 0.0316 µM
[23] = second compound 1 µM, first compound 0.1 µM
[24] = second compound 3.16 µM, first compound 0.000316 µM
[25] = second compound 3.16 µM, first compound 0.001 µM
[26] = second compound 3.16 µM, first compound 0.00316 µM
[27] = second compound 3.16 µM, first compound 0.01 µM
[28] = second compound 3.16 µM, first compound 0.0316 µM
[29] = second compound 3.16 µM, first compound 0.1 µM
[30] = second compound 10 µM, first compound 0.000316 µM
[31] = second compound 10 µM, first compound 0.001 µM
[32] = second compound 10 µM, first compound 0.00316 µM
[33] = second compound 10 µM, first compound 0.01 µM
[34] = second compound 10 µM, first compound 0.0316 µM
[35] = second compound 10 µM, first compound 0.1 µM
[36] = second compound 0.1 µM, first compound 0.316 µM
[37] = second compound 0.1 µM, first compound 1 µM
[38] = second compound 0.1 µM, first compound 3.16 µM
[39] = second compound 0.1 µM, first compound 10 µM
[40] = second compound 0.316 µM, first compound 0.316 µM
[41] = second compound 0.316 µM, first compound 1 µM
[42] = second compound 0.316 µM, first compound 3.16 µM
[43] = second compound 0.316 µM, first compound 10 µM
[44] = second compound 1 µM, first compound 0.316 µM
[45] = second compound 1 µM, first compound 1 µM
[46] = second compound 1 µM, first compound 3.16 µM
[47] = second compound 1 µM, first compound 10 µM
[48] = second compound 3.16 µM, first compound 0.316 µM
[49] = second compound 3.16 µM, first compound 1 µM
[50] = second compound 3.16 µM, first compound 3.16 µM
[51] = second compound 3.16 µM, first compound 10 µM
[52] = second compound 10 µM, first compound 0.316 µM
[53] = second compound 10 µM, first compound 1 µM
[54] = second compound 10 µM, first compound 3.16 µM
[55] = second compound 10 µM, first compound 10 µM
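Also: viability read after seven days of drug exposure.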

SMILES | IC50 [1] [µM] | IC50 [2] [µM] | IC50 [3] [µM] | IC50 [4] [µM] | IC50 [5] [µM] | viability, T/C [9] [%] | viability, T/C [10] [%] | viability, T/C [11] [%] | viability, T/C [15] [%] | viability, T/C [16] [%] | viability, T/C [17] [%] | viability, T/C [21] [%] | viability, T/C [22] [%] | viability, T/C [23] [%] | viability, T/C [27] [%] | viability, T/C [28] [%] | viability, T/C [29] [%] | viability, T/C [33] [%] | viability, T/C [34] [%] | viability, T/C [35] [%] | other results
CN(C)C/C=C/C(=O)Nc1cc2c(Nc3ccc(F)c(Cl)c3)ncnc2cc1O[C@H]1CCOC1 + CC1OCC2(CCN(c3cnc(Sc4ccnc(N)c4Cl)c(N)n3)CC2)C1N | > 0.1 | > 0.1 | > 0.1 | < 0.000316 | > 0.1 | 73.4 | 81.9 | 59.3 | 57.6 | 63.5 | 58.2 | 75.5 | 78.6 | 73.1 | 49 | 65.2 | 64.5 | 79.9 | 80.8 | 80.3 | viability, T/C [6]: 71.7%; viability, T/C [7]: 66.5%; viability, T/C [8]: 56.3%; viability, T/C [12]: 60.5%; viability, T/C [13]: 70.3%; viability, T/C [14]: 57.3%; viability, T/C [18]: 112%; viability, T/C [19]: 107%; viability, T/C [20]: 85.3%; viability, T/C [24]: 28%; viability, T/C [25]: 37%; viability, T/C [26]: 37.2%; viability, T/C [30]: 105%; viability, T/C [31]: 90%; viability, T/C [32]: 85.8%
CC(C)NCC(C(=O)N1CCN(c2ncnc3c2C(C)CC3O)CC1)c1ccc(Cl)cc1 (stereo not drawn) + CNCc1ccccc1-c1csc(C(C)Nc2nc(C)nc3cc(OC)c(OC)cc23)c1 | > 10 | > 10 | 4.28 | < 0.0316 | < 0.0316 |  | 103 | 104 |  | 101 | 102 |  | 109 | 98.5 |  | 1.5 | 1.33 |  | 0.61 | 1.13 | viability, T/C [36]: 83.4%; viability, T/C [37]: 77.6%; viability, T/C [38]: 84.1%; viability, T/C [39]: 66.3%; viability, T/C [40]: 79.9%; viability, T/C [41]: 70.1%; viability, T/C [42]: 67.5%; viability, T/C [43]: 55.9%; viability, T/C [44]: 75.4%; viability, T/C [45]: 66.5%; viability, T/C [46]: 58%; viability, T/C [47]: 38.2%; viability, T/C [48]: 1.91%; viability, T/C [49]: 0.59%; viability, T/C [50]: 0.9%; viability, T/C [51]: 0.33%; viability, T/C [52]: 0.73%; viability, T/C [53]: 0.33%; viability, T/C [54]: 2.15%; viability, T/C [55]: 0.33%
Cn1ncnc1[C@H]1c2n[nH]c(=O)c3cc(F)cc(c23)N[C@@H]1c1ccc(F)cc1 + CC1OCC2(CCN(c3cnc(Sc4ccnc(N)c4Cl)c(N)n3)CC2)C1N | > 0.1 | > 0.1 | 0.0036 | < 0.000316 | < 0.000316 | 63.6 | 63.7 | 53.3 | 55.6 | 46.6 | 55.1 | 45 | 45.4 | 51.4 | 44.5 | 41.9 | 41.8 | 38.5 | 37.9 | 40 | viability, T/C [6]: 72.5%; viability, T/C [7]: 75%; viability, T/C [8]: 63.8%; viability, T/C [12]: 58%; viability, T/C [13]: 58.2%; viability, T/C [14]: 61.5%; viability, T/C [18]: 56.7%; viability, T/C [19]: 53.4%; viability, T/C [20]: 52.7%; viability, T/C [24]: 46.4%; viability, T/C [25]: 44.4%; viability, T/C [26]: 46.5%; viability, T/C [30]: 43.6%; viability, T/C [31]: 47.5%; viability, T/C [32]: 46.5%
CC(=O)OC12COC1CC(O)C1(C)C(=O)C(O)C3=C(C)C(OC(=O)C(O)C(NC(=O)OC(C)(C)C)c4ccccc4)CC(O)(C(OC(=O)c4ccccc4)C21)C3(C)C (stereo not drawn) + CC1OCC2(CCN(c3cnc(Sc4ccnc(N)c4Cl)c(N)n3)CC2)C1N | < 0.01 | < 0.01 | < 0.01 | < 0.01 | < 0.01 | 26.4 | 15.3 | 11.9 | 25.1 | 15.3 | 14 | 19.7 | 13 | 11.2 | 21.2 | 15.9 | 14.5 | 22.1 | 15.9 | 15.2 | viability, T/C [36]: 14.5%; viability, T/C [37]: 16.1%; viability, T/C [38]: 19.7%; viability, T/C [40]: 11.1%; viability, T/C [41]: 17.7%; viability, T/C [42]: 18.2%; viability, T/C [44]: 13.1%; viability, T/C [45]: 15.6%; viability, T/C [46]: 20.7%; viability, T/C [48]: 12.7%; viability, T/C [49]: 19.5%; viability, T/C [50]: 23.2%; viability, T/C [52]: 17.3%; viability, T/C [53]: 14.6%; viability, T/C [54]: 22.3%
COc1cc2nc(C)nc(NC(C)c3cc(N)cc(C(F)(F)F)c3)c2cc1OC1CCOC1 (stereo not drawn) |  |  |  |  |  |  |  |  |  |  |  |  |  |  |  |  |  |  |  |  | viability, T/C (compound 0.1 µM): 87.8% [middle of 17 runs]; IC50 (compound alone, run of 08/26/2021): > 10 µM; IC50 (compound alone, run of 09/02/2021): > 10 µM
CC(C)n1nc(-c2ccc3oc(N)nc3c2)c2c(N)ncnc21 + CNCc1ccccc1-c1csc(C(C)Nc2nc(C)nc3cc(OC)c(OC)cc23)c1 | 0.00742 | 0.00911 | 0.00662 | < 0.000316 | < 0.000316 | 45.8 | 34.1 | 25.2 | 49.4 | 30.7 | 23.8 | 42.1 | 30.9 | 21.6 | 0.49 | 1.25 | 0.88 | 0.13 | 0.15 | 0.2 | viability, T/C [6]: 91.2%; viability, T/C [7]: 85.3%; viability, T/C [8]: 61.2%; viability, T/C [12]: 84%; viability, T/C [13]: 83.2%; viability, T/C [14]: 67.1%; viability, T/C [18]: 92.5%; viability, T/C [19]: 82.7%; viability, T/C [20]: 62.2%; viability, T/C [24]: 32.1%; viability, T/C [25]: 43.5%; viability, T/C [26]: 0.4%; viability, T/C [30]: 0.38%; viability, T/C [31]: 0.15%; viability, T/C [32]: 0.47%
CC1(C)CCC(CN2CCN(c3ccc(C(=O)NS(=O)(=O)c4ccc(NCC5CCOCC5)c([N+](=O)[O-])c4)c(Oc4cnc5[nH]ccc5c4)c3)CC2)=C(c2ccc(Cl)cc2)C1 + CC1OCC2(CCN(c3cnc(Sc4ccnc(N)c4Cl)c(N)n3)CC2)C1N | 5.3 | 4.27 | 1.37 | < 0.0316 | < 0.0316 |  | 70.5 | 75.5 |  | 62.2 | 71.7 |  | 53.5 | 51.5 |  | 48.1 | 41.3 |  | 40.3 | 47.5 | viability, T/C [36]: 74%; viability, T/C [37]: 81.3%; viability, T/C [38]: 89.9%; viability, T/C [39]: 15.3%; viability, T/C [40]: 51.1%; viability, T/C [41]: 63.5%; viability, T/C [42]: 69.2%; viability, T/C [43]: 11.9%; viability, T/C [44]: 54.1%; viability, T/C [45]: 50.3%; viability, T/C [46]: 45.7%; viability, T/C [47]: 8.54%; viability, T/C [48]: 35.1%; viability, T/C [49]: 41.4%; viability, T/C [50]: 46.7%; viability, T/C [51]: 8.81%; viability, T/C [52]: 37.2%; viability, T/C [53]: 40.5%; viability, T/C [54]: 17.1%; viability, T/C [55]: 1.93%
